Laboratory results as given in US11590139B2, “Substituted aminopurine compounds, compositions thereof, and methods of treatment therewith” (Signal Pharmaceuticals, LLC, priority 2014, dated 2023).
Where two headings read alike, the source gives them in different places.

System: Lox-IMVI melanoma cell line
Experiment: Lox-IMVI anti-proliferative assay (growth inhibition, Cell Titer-Glo)
Format: cell-based, human
Settings: Lox-IMVI anti-proliferative assay, IC50 activity level, read-out: Activity
Outline: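 Luminescence from cellular ATP measured viability at compound addition and again after 72 h of exposure (37 °C, 5% CO2, RPMI + 10% FBS). Doses spanned 0.5 nM to 10 μM in ten 3-fold steps with 0.2% DMSO. Values were fitted as % of DMSO-treated cells by sigmoidal dose-response.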

SMILES	IC50 (Homo sapiens) [nM]	IC50 [nM]
NC(=O)[C@H]1CC[C@@H](n2c(Nc3c(Cl)cc(Cl)cc3Cl)nc3cnc(NC4CCCOCC4)nc32)CC1 (stereo partly drawn) [Example 539, (1s,4s)-4-(2-(oxepan-4-ylamino)-8-(2,4,6-trichlorophenylamino)-9H-purin-9-yl)cyclohexanecarboxamide]	< 250	
NC(=O)[C@H]1CC[C@@H](n2c(Nc3c(F)cc(Cl)cc3F)nc3cnc(NC4CCCOCC4)nc32)CC1 (stereo partly drawn) [Example 540, (1s,4s)-4-(8-(4-chloro-2,6-difluorophenylamino)-2-(oxepan-4-ylamino)-9H-purin-9-yl)cyclohexanecarboxamide]	250 to 500	
NC(=O)[C@H]1CC[C@@H](n2c(Nc3c(Cl)cc(F)cc3Cl)nc3cnc(NC4CCCOCC4)nc32)CC1 (stereo partly drawn) [Example 541, (1s,4s)-4-(8-(2,6-dichloro-4-fluorophenylamino)-2-(oxepan-4-ylamino)-9H-purin-9-yl)cyclohexanecarboxamide]	500 to 1000	
N#Cc1cc(F)c(Nc2nc3cnc(N[C@H]4CCCOCC4)nc3n2C2CCC(C(N)=O)CC2)c(F)c1 (stereo partly drawn) [Example 542, (1s,4s)-4-(8-(4-cyano-2,6-difluorophenylamino)-2-(oxepan-4-ylamino)-9H-purin-9-yl)cyclohexanecarboxamide]		> 1000
N#Cc1cc(F)c(Nc2nc3cnc(NC4CCCOCC4)nc3n2[C@H]2CC[C@@H](C(N)=O)CC2)c(Cl)c1 (stereo partly drawn) [Example 543, (1s,4s)-4-(8-(2-chloro-4-cyano-6-fluorophenylamino)-2-(oxepan-4-ylamino)-9H-purin-9-yl)cyclohexanecarboxamide]	< 250	
NC(=O)[C@H]1CC[C@@H](n2c(Nc3c(Cl)cc(C(F)(F)F)cc3Cl)nc3cnc(NC4CCCOCC4)nc32)CC1 (stereo partly drawn) [Example 544, (1s,4s)-4-(8-(2,6-dichloro-4-(trifluoromethyl)phenylamino)-2-(oxepan-4-ylamino)-9H-purin-9-yl)cyclohexanecarboxamide]	> 1000	
NC(=O)[C@H]1CC[C@@H](n2c(Nc3c(F)cc(F)cc3F)nc3cnc(N[C@@H]4CCC(F)(F)C4)nc32)CC1 [Example 545, (1S,4s)-4-(2-((R)-3,3-difluorocyclopentylamino)-8-(2,4,6-trifluorophenylamino)-9H-purin-9-yl)cyclohexanecarboxamide]	< 250	
C[C@@H](CO)Nc1ncc2nc(Nc3c(F)cc(F)cc3F)n([C@H]3CC[C@@](C)(C(N)=O)CC3)c2n1 [Example 546, (1R,4s)-4-(2-((S)-1-hydroxypropan-2-ylamino)-8-(2,4,6-trifluorophenylamino)-9H-purin-9-yl)-1-methylcyclohexanecarboxamide]	250 to 500	
C[C@@H](CO)Nc1ncc2nc(Nc3c(F)cc(Cl)cc3Cl)n([C@H]3CC[C@@](C)(C(N)=O)CC3)c2n1 [Example 547, (1R,4s)-4-(8-(2,4-dichloro-6-fluorophenylamino)-2-((S)-1-hydroxypropan-2-ylamino)-9H-purin-9-yl)-1-methylcyclohexanecarboxamide]	< 250	
C[C@@H](CO)Nc1ncc2nc(Nc3c(F)cc(F)cc3Cl)n([C@H]3CC[C@@](C)(C(N)=O)CC3)c2n1 [Example 548, (1R,4s)-4-(8-(2-chloro-4,6-difluorophenylamino)-2-((S)-1-hydroxypropan-2-ylamino)-9H-purin-9-yl)-1-methylcyclohexanecarboxamide]	< 250	
C[C@@H](CO)Nc1ncc2nc(Nc3c(Cl)cc(Cl)cc3Cl)n([C@H]3CC[C@@](C)(C(N)=O)CC3)c2n1 [Example 549, (1R,4s)-4-(2-((S)-1-hydroxypropan-2-ylamino)-8-(2,4,6-trichlorophenylamino)-9H-purin-9-yl)-1-methylcyclohexanecarboxamide]	< 250	
C[C@@H](CO)Nc1ncc2nc(Nc3c(F)cc(Cl)cc3F)n([C@H]3CC[C@@](C)(C(N)=O)CC3)c2n1 [Example 550, (1R,4s)-4-(8-(4-chloro-2,6-difluorophenylamino)-2-((S)-1-hydroxypropan-2-ylamino)-9H-purin-9-yl)-1-methylcyclohexanecarboxamide]	< 250	
